Test results as given in US11898161B2, “Stem cell culture medium and method” (RIKEN, priority 2006, dated 2024).
Values joined by “and” are separate entries in the source; they are usually repeats but may differ in a detail not shown here. Equal entries are not always repeated. One block for each compound: values may come before it. Residues, ends and D or L forms follow the SMILES beside them. *: point of attachment. Cbz = O=C(OCc1ccccc1)*; CH2F = FC*

Tests used:
Format in all cases: cell-based
[1] = system: human embryonic stem cells (KhES-1); test: Cloning efficiency (colony formation) of dissociated human ES cells at low density on MEF feeder layer; settings: for cloning efficiency compared to without the inhibitors: Fasudil/HA1077 10 μM, H-1152 200 nM, other kinase inhibitors at ranges of b100
Source text: The Human embryonic stem cells used for the experiments described herein were embryonic stem cells (KhES-1, KhES-2 and KhES-3) from human blastocysts established in the laboratory of Norio Nakatsuji, at the Institute for Frontier Medical Sciences, Kyoto University, which were distributed and used (mainly KhES-1) following the human embryonic stem cell guidelines of the Japanese government. In accordance with the method of the Nakatsuji laboratory (Suemori et al., Biochem Biophys Res Commun. 345, 926-32 (2006)), undifferentiated human embryonic stem cells were cultured on a plastic culture dish with mouse embryonic fibroblasts (inactivated with mitomycin, MEF) seeded as a feeder layer of cells. More specifically, the culture medium containing comprising KSR (Invitrogen/Gibco-BRL) at the final concentration of 20%, 1×NEAA (non-essential amino acids, Invitrogen/Gibco BRL), 2 mM L-giutaminic acid and 0.1 mM 2-mercaptoethanol in D-MEM F12 (Sigma D6421) was used, and the culturing was performed at 37° C., 5% CO2. Passaging was performed in every three or four days, and the embryonic stem cells were detached from the feeder layer using the dissociation liquid (containing 0.25% trypsin, 1 mg/mi collagenase IV solution, 1 mM CaCl2 in a phosphate buffered saline; all of which from Invitrogen/Gibco-BRL), followed by dissociated into small cell clumps (of about 50-100 cells) by pipetting, and then were seeded on the feeder layer which had been formed from seeding MEF on the day before.
The cell death inhibiting effect and the influence on cloning efficiency, of ROCK inhibitor, for the human embryonic stem cell culture after dissociation to single cells were examined as follows. […] The embryonic stem cell clumps ware dissociated to single cells by trypsin digestion (0.25% trypsin—EDTA, at 37° C. for 5 minutes), and seeded on a MEF feeder layer in 96 well culture plates at low density (500 cells/0.32 cm^2 in 0.15 ml of medium). The number of formed colonies was counted six days after culture in the maintenance culture medium. ROCK inhibitor Y-27632 was added at the concentration of 10 μM one hour prior to detaching the cells from the feeder layer, and the same amount was added to culture in the same amount after the detachment.
The effects of other ROCK inhibitors on the cloning efficiency of human embryonic stem cells in maintenance culture were evaluated using methods as described in example 1. The ROCK inhibitors, Fasudil/HA1077 (10 μM) and H-1152 (200 nM) were used. Also, inhibitors for other kinases were used for reference. The inhibitors for other kinases used were: cAMP-Rp (1-100 μM) and KT5720 (5-500 nM), which are protein kinase A inhibitors; bisindolylmaleimide (0.01-5 μM) and staurosporine (1-50 nM), which are protein kinase C inhibitors; PD98059 (0.5-50 μM), which is an MAPK inhibitor; LY294002 (1-50 μM), which is a PI3K inhibitor; and ML-7 (0.3-30 μM), which is an MLCK inhibitor.

[2] = system: human embryonic stem cells; test: Cloning efficiency at clonal density (one cell per well, 96 well plates) on MEF; settings: 10 μM, under 1% without inhibitor
Description: The cell death inhibiting effect and the influence on cloning efficiency, of ROCK inhibitor, for the human embryonic stem cell culture after dissociation to single cells were examined as follows. […] The number of formed colonies was counted six days after culture in the maintenance culture medium. ROCK inhibitor Y-27632 was added at the concentration of 10 μM one hour prior to detaching the cells from the feeder layer, and the same amount was added to culture in the same amount after the detachment. Also, to evaluate whether promotion of cloning would be caused by the autocrine factor of human embryonic stem cell, a similar experiment was performed in 96 well culture plates at clonal density (one cell per well) of human embryonic stem cells, and the cloning efficiency was determined.

human ES cells (KhES-1) [3] = test: TUNEL apoptosis assay in suspension culture of dissociated human ES cells; settings: after 2-day suspension culture; 80% in non-supplemented control
Description: (§1) Human ES cells subjected to maintenance culture were detached as small cell clumps (aggregates) from feeder cells in the same manner as in Example 1, and after removal of residual feeder cells, they were dissociated into single cells by trypsin digestion. After centrifugation, 2×10^5 cells were dissociated in serum-free culture medium for post differentiation induction (Watanabe et al., Nature Neuroscience 8, 288-296, 2005; supplemented with G-MEM, KSR and 2-mercaptoethanol, KSR was added at a concentration of 20%). The singly-dissociated human ES cells (1.0×10^5 cells/ml) were suspension-cultured in a non-cell adhesive 35 mm culture plate to form aggregates, and were cultured in the same culture medium for 2-6 days (SFEB method; See the above reference of Watanabe et al.). After 2-day culture, the percentage of apoptic cells was measured by TUNEL method (MEBSTAIN Apoptosis kit Direct, MBL). Treatment with ROCK inhibitor, Y-27632, was initiated at 1 hour before cell separation in the same manner as in Example 1, and the inhibitor was added to maintenance culture medium also after dissociation. For comparison, caspase inhibitor (ZVAD; 10 μM) and BDNF/NT-3/NT-4 (mixture of 50 ng/ml each), whose apoptosis suppressive effect has been reported, were used to conduct the experiment. In addition, the number of surviving cells on day 6 was counted in each case.

human ES cells (KhES-1) [4] = test: Number of surviving cells in suspension culture (SFEB) of dissociated human ES cells; settings: 8% in non-supplemented group
Description: as §1

human ES cells [5] = test: Differentiation induction into neuronal and brain precursor cells by SFEB method from singly-dissociated human ES cells
Source text: Human ES cells subjected to maintenance culture were detached from feeder cells as small cell clumps in the same manner as in Example 4, and after removal of residual feeder cells, they were dissociated into single cells by trypsin digestion. After centrifugation, cells were dissociated into culture medium for differentiation induction at 2×10^5 cells/mL, and were suspension-cultured using a non-cell adhesive culture plate to conduct serum-free culture (SFEB method) of suspended aggregates. In addition, Nodal inhibitor LeftyA (1 μg/ml, R&D), Wnt inhibitor Dkk1 (500 ng/ml, R&D) and BMP inhibitor BMPR1A-Fc (1.5 μg/ml, R&D) were added for the first 10 days after the start of culture for differentiation induction. After serum-free suspension culture for 16-35 days, the cell aggregates were fixed and immunostained by fluorescence antibody method. Treatment with the ROCK inhibitor, Y-27632, was initiated at 1 hour before cell separation in the same manner as in Example 1, and the inhibitor was added to maintenance culture medium for the first six days also after dissociation. For the differentiation into brain precursor cells, on day 25 of SFEB culture, floating cell aggregates were transferred into a poly-D-lysine/laminin/fibronectin-coated culture slide, and were cultured in an adhesion state for additional 10 days. In the adhesion culture, Neurobasal medium, supplemented with B27 (vitamin A-free) and 2 mM L-glutamine (both supplied by Gibco-BRL), was used as a culture medium.

human ES cells (KhES-1) [6] = test: Feeder-free culture of singly-dissociated human ES cells, colony formation; settings: 10 μM Y-27632, feeder-free, MEF-conditioned medium, 500 cells/well; less than 0.2% untreated
Description: Specifically, according to the above literature, MEF cells cultured to confluency were lysed on a culture dish by deoxycholate method to leave only extracellular matrix. Singly-dissociated human ES cells (500 cells/well of a 96-well plate) were seeded onto them under Y-2763 treatment (10 μM or 0 μM) by the same method as for the routine culture on MEF cells (abovementioned Example). Conditioned medium, in which human ES cell maintenance medium and MEF were preliminarily cultured for one day, was used as a culture medium. The number of human ES cell colonies formed 5 days later were counted.

human ES cells [7] = test: Maintenance culture of singly-dissociated human ES cells on MEF with different time courses of treatment (survival, growth, apoptosis); settings: for population doubling time: days 2 to 6 after start of dissociation culture
Description: As for the maintenance culture of singly-dissociated human ES cells, in order to examine whether Y-27632 promotes cell survival at the early phase of dissociation culture, Y-27632 treatment time was divided into the following three groups to compare cell survival-promoting effects in maintenance culture. Group 1: Y-27632 treatment (10 μM, same below) was conducted as 1 hour-pretreatment and only for the first 12 hours of culture after dissociation in the process of dissociation culture of human ES cells. Group 2: Y-27632 treatment was conducted as 1 hour-pretreatment and for the entire culture period after dissociation in the process of dissociation culture of human ES cells. Group 3: No Y-27632 treatment was conducted. In these groups, surviving cells on day 3 per seeded cells (5×10^4 cells per one well of a 6-well plate) were counted in maintenance culture system on MEF layer. In the same experiment as in the above Example 7, the effect of Y-27632 on the cell growth for 6 days after the start of dissociation culture was examined in Groups 1 and 2 by extending the culture period to 6 days.

hES cells (KhES-3) = settings: human, 3 months
Description: FIGS. 4A-4L—Analysis of hES cells cultured in the presence of Y-27632 at low density. (FIGS. 4A-4C) Immunostaining of E-cadherin (FIG. 4A), Oct3/4 (FIG. 4B) and SSEA-4 (FIG. 4C) in Y-27632-treated hES cells (KhES-1) after extended passaging (30 times) at low density with Y-27632 treatment. Lower panels show DAPI staining (blue). (FIGS. 4D-4G) Histological analysis (hematoxylin-eosin staining, […] paraffin section) of teratoma tissues formed after subcapsular injection of hES cells (KhES-1) following extended passaging with Y-27632 into SCID mouse testes. (FIG. 4D) Cartilage, (FIG. 4E) neuroepithelium, (FIG. 4F) pigmented epithelium, and (g) gut-like mucosa with columnar epithelium. (FIG. 4H, FIG. 4I) After extended passaging involving low-density culture with Y-27632 treatment, efficient colony formation from dissociated hES cells (32.5±11%; KhES-1) remained dependent on Y-27632 (FIG. 4I) and few colonies were seen without it (FIG. 4H). (FIG. 4J) Dose-response relationship of two selective ROCK inhibitors (Y-27632, Fasudil; the cloning efficiency was 1.3±0.8% and 25.1±1.6% without and with 10 μM Fasudil; P<0.001, n=3) and two unrelated kinase inhibitors (cAMP-Rp, LY294002) on colony formation (KhES-1). Y-axis, ratios of promoting activity of colony formation to that with 10 μM Y-27632. […]

- normal karyotype (hES cells (KhES-3)): 100%
Compound: C[C@@H](N)[C@H]1CC[C@H](C(=O)Nc2ccncc2)CC1 [Y-27632]
- cloning efficiency (ratio of formed colonies to initially seeded human embryonic stem cells) ([1]; 10 μM Y-27632, 500 cells/well on MEF, six days culture, 1% without inhibitor): 27%
- colony formation from dissociated hES cells after extended passaging ([1]; KhES-1 after extended passaging (low-density culture with Y-27632 treatment), few colonies without it): 32.5±11%
- cloning efficiency [2]: 25%
- TUNEL-positive (apoptotic) cells (human ES cells (KhES-1) [3]): 9%
- surviving cells on day 6 (of plated cells) (human ES cells (KhES-1) [4]): 70%
- Oct3/4 positive cells (undifferentiated-state ES cell marker) (human ES cells [5]; day 24 of differentiation culture): less than 10%
- Pax6-positive cells (human ES cells [5]; day 24 of differentiation culture, Y-27632 first six days, with LeftyA, Dkk1, BMPR1A-Fc): about 80%
- cell aggregates with many Bf1 positive cells (brain precursor marker) (human ES cells [5]; day 35 of differentiation culture): about 60%
- cloning efficiency per seeded human ES cell, feeder-free (human ES cells (KhES-1) [6]): 10.2% and 10.2±1.2%
- surviving cells on day 3 per seeded cells (human ES cells [7]; Group 1: 10 μM, 1 hour pretreatment and first 12 hours after dissociation only): 270%
- number of cells on day 6 relative to initially seeded cells (human ES cells [7]; Group 1: first 12 hours only): 670%
- population doubling time (human ES cells [7]; Group 1): 49.0 h
- surviving cells on day 3 per seeded cells (human ES cells [7]; Group 2: 10 μM, 1 hour pretreatment and entire culture period): 290%
- number of cells on day 6 relative to initially seeded cells (human ES cells [7]; Group 2: entire culture period): 860%
- population doubling time (human ES cells [7]; Group 2): 41.5 h
- percentage of apoptosis (active Caspase 3-positive cells) (human ES cells [7]; both Groups 1 and 2, days 3 and 5): less than 1%

Compound: O=S(=O)(c1cccc2cnccc12)N1CCCNCC1 [Fasudil]
- cloning efficiency ([1]; 10 μM Fasudil, KhES-1, 1.3±0.8% without, P<0.001, n=3): 25.1±1.6%
- cloning efficiency compared to without the inhibitors [1]: significant enhanced cloning efficiencies

Compound: Cc1cncc2cccc(S(=O)(=O)N3CCCNC[C@@H]3C)c12 [H-1152]
- cloning efficiency compared to without the inhibitors [1]: significant enhanced cloning efficiencies

Compound: COC(=O)C[C@H](NC(=O)[C@H](C)NC(=O)[C@@H](NC(=O)OCc1ccccc1)C(C)C)C(=O)CF [ZVAD] (Cbz-Val-Ala-Asp(OMe)-CH2F)
- TUNEL-positive (apoptotic) cells (human ES cells (KhES-1) [3]): 72%
